Entries after “also recorded” stand apart in the source; their conditions may differ.
Columns and labels:
RCS rats = assay: Pupillary light response after eye injection; assay type: in vivo, rat
From the text: FIG. 28 illustrates the pupillary light response in RCS rats.
This finding was reproduced in 3 of 3 RCS rats injected with Rubpy-C17, and in 2 of 2 control (sham injection) RCS rats.

leech ganglion neurons = assay: Leech ganglion neurons, light-induced action potential firing; assay type: cell-based, Hirudo verbana; conditions: ex vivo leech ganglia
Procedure: Adult leeches Hirudo verbana will be obtained from Niagara Medical Leeches, Inc. (Westbury, N.Y., USA). Groups (20-30) of animals will be kept in glass aquaria with artificial pond water (36 mg/L Instant Ocean salts; Aquarium Systems, Mentor Ohio), in a temperature-controlled room at 16° C. and a 12:12 h light:dark cycle. At the time of experiments, leeches will weigh 1-3 g. Before dissection, the leech will be anesthetized in ice-cold leech saline. Leech saline has the following composition (in mM per liter): NaCl—115, KCl—4, CaCl2—1.8, MgCl2—2, HEPES—10, D-Glucose—5 (Sigma-Aldrich, USA). Individual ganglia will be dissected from the mid-body segments M6-M12, and pinned down in Sylgard-filled dissection box. Medial dorsal longitudinal incision will be made and the blood will be flushed away. Connective tissue and the blood vessel overlaying the ganglion chain will be incised. Dissected ganglia will be transferred to a Petri dish, pinned down in paraffin with six stainless steel pins (dorsal side up). PVNs will be microinjected into the extracellular space of the ganglion with a glass micropipette. Intracellular recording will be performed by penetrating the Retzius neurons with sharp glass electrodes (20-30 MOhm) filled with 3M potassium acetate. […] Neuronal firing will be recorded before and after the injections.

CCCCCCCCCCCCCCCCCc1ccnc(-c2cc(C)ccn2)c1.F[P-](F)(F)(F)(F)F.F[P-](F)(F)(F)(F)F.[Ru+2].c1ccc(-c2ccccn2)nc1.c1ccc(-c2ccccn2)nc1 [RubpyC17, [Ru(bpy)2(bpy-C17)](PF6)2]
pupillary light reflex in injected eye (RCS rats; RCS rat, not in non-injected eye): vigorous pupillary light reflex was observed; also recorded: pupil constricts
time of pupillary light reflex (RCS rats; injected eye): < 3 s
light-induced action potential firing (leech ganglion neurons): respond to illumination by firing action potentials; also recorded: light-induced increases in action potential firing
